Structures are written as SMILES.

Data set [1] has as its system Echinochloa oryzicola. The data set is described as follows: Pre-emergent herbicidal activity against Echinochloa oryzicola assessed as growth inhibition at 10 g/a after 3 weeks in greenhouse conditions. To be noted: pre-emergence, 504 h, read-out: GI. It counts as functional.
Data set [2] is described as follows: Phytotoxicity against Oryza sativa (rice) assessed as growth inhibition at 10 g/a after 3 weeks in greenhouse conditions. In kind it is organism-based. To be noted: in vivo, read-out: GI.
The test system of data set [3] is Eleocharis kuroguwai. In words: Pre-emergent herbicidal activity against Eleocharis kuroguwai assessed as growth inhibition at 10 g/a after 3 weeks in greenhouse conditions. In kind it is functional. The note with it: pre-emergence, 504 h, read-out: GI.
In data set [4] the test system is Schoenoplectiella juncoides. In words: Pre-emergent herbicidal activity against Schoenoplectiella juncoides assessed as growth inhibition at 10 g/a after 3 weeks in greenhouse conditions. It counts as functional. To be noted: pre-emergence, 504 h, read-out: GI.
The nature of data set [5]: Phytotoxicity against Oryza sativa (rice) assessed as growth inhibition at 25 g/a after 3 weeks in greenhouse conditions. In kind it is organism-based. To be noted: in vivo, read-out: GI.
The test system of data set [6] is Cyperus serotinus. In words: Pre-emergent herbicidal activity against Cyperus serotinus assessed as growth inhibition at 10 g/a after 3 weeks in greenhouse conditions. The note with it: pre-emergence, 504 h, read-out: GI. It counts as functional.
The subject of data set [7] is Eleocharis acicularis. In words: Pre-emergent herbicidal activity against Eleocharis acicularis assessed as growth inhibition at 25 g/a after 3 weeks in greenhouse conditions. In kind it is functional. The note with it: pre-emergence, 504 h, read-out: GI.
The subject of data set [8] is Eleocharis acicularis. The data set is described as follows: Pre-emergent herbicidal activity against Eleocharis acicularis assessed as growth inhibition at 10 g/a after 3 weeks in greenhouse conditions. It counts as functional. To be noted: pre-emergence, 504 h, read-out: GI.
Data set [9] relates to Lindernia procumbens. In words: Pre-emergent herbicidal activity against Lindernia procumbens assessed as growth inhibition at 25 g/a after 3 weeks in greenhouse conditions. It counts as functional. To be noted: pre-emergence, 504 h, read-out: GI.
The test system of data set [10] is Eleocharis kuroguwai. The data set is described as follows: Pre-emergent herbicidal activity against Eleocharis kuroguwai assessed as growth inhibition at 25 g/a after 3 weeks in greenhouse conditions. In kind it is functional. To be noted: pre-emergence, 504 h, read-out: GI.
The test system of data set [11] is Echinochloa oryzicola. The data set is described as follows: Pre-emergent herbicidal activity against Echinochloa oryzicola assessed as growth inhibition at 25 g/a after 3 weeks in greenhouse conditions. It counts as functional. The note with it: pre-emergence, 504 h, read-out: GI.
For data set [12], the system named is Schoenoplectiella juncoides. The data set is described as follows: Pre-emergent herbicidal activity against Schoenoplectiella juncoides assessed as growth inhibition at 25 g/a after 3 weeks in greenhouse conditions. The note with it: pre-emergence, 504 h, read-out: GI. In kind it is functional.
Data set [13] relates to Lindernia procumbens. In words: Pre-emergent herbicidal activity against Lindernia procumbens assessed as growth inhibition at 10 g/a after 3 weeks in greenhouse conditions. To be noted: pre-emergence, 504 h, read-out: GI. It counts as functional.
For data set [14], the system named is Cyperus serotinus. The data set is described as follows: Pre-emergent herbicidal activity against Cyperus serotinus assessed as growth inhibition at 25 g/a after 3 weeks in greenhouse conditions. The note with it: pre-emergence, 504 h, read-out: GI. It counts as functional.

With `CCSc1c(C)on(C(=O)N(c2ccc(Cl)cc2)C(C)C)c1=O`, the inhibition of growth at 1000 g/ha (in the data set with Echinochloa oryzicola [1]; in the data set on Eleocharis kuroguwai [3]; in [4]; in the data set on Cyperus serotinus [6]; in the data set on Eleocharis acicularis [8]; in the data set with Lindernia procumbens [13]) was above 91% throughout. Also, the inhibition at 504 h in [2] was below 10%; in [5] it was 11%. For the same compound, the inhibition of growth at 2500 g/ha (in the data set with Eleocharis acicularis [7]; with Lindernia procumbens [9]; in the data set with Eleocharis kuroguwai [10]; in the data set with Echinochloa oryzicola [11]; in data set [12]; in the data set on Cyperus serotinus [14]) was above 91% throughout.

Take `CCSc1c(C)on(C(=O)N(c2ccc(F)cc2)C(C)C)c1=O`: the inhibition at 504 h in data set [5] turned out to be 51%. The inhibition of growth at 2500 g/ha (with Eleocharis acicularis [7]; with Lindernia procumbens [9]; in the data set on Eleocharis kuroguwai [10]; in the data set on Echinochloa oryzicola [11]; in [12]; in the data set on Cyperus serotinus [14]) was above 91% in each case.

With `CCSc1c(CC)on(C(=O)N(c2ccc(Cl)cc2)C(C)C)c1=O`, the inhibition of growth at 1000 g/ha in the data set on Echinochloa oryzicola [1] is above 91%; in the data set with Eleocharis kuroguwai [3], above 91%; in [4] it was 51%; in the data set with Cyperus serotinus [6], 71%; in the data set on Eleocharis acicularis [8] it was 51%; in the data set on Lindernia procumbens [13] it was 51%. In addition, the inhibition at 504 h in [2] was below 10%; in data set [5], 31%. Also, the inhibition of growth at 2500 g/ha with Eleocharis acicularis [7] is 71%; in the data set on Lindernia procumbens [9], 71%; with Eleocharis kuroguwai [10], above 91%; with Echinochloa oryzicola [11], above 91%; in data set [12], 71%; with Cyperus serotinus [14], above 91%.

Regarding `CCCSc1c(C)on(C(=O)N(c2ccc(Cl)cc2)C(C)C)c1=O`, the inhibition of growth at 1000 g/ha is above 91% in the data set with Echinochloa oryzicola [1]; above 91% in the data set with Eleocharis kuroguwai [3]; above 91% in data set [4]; above 91% with Cyperus serotinus [6]; above 91% with Eleocharis acicularis [8]; 51% in the data set with Lindernia procumbens [13]. Moreover, the figures for the inhibition at 504 h in data set [2] and in [5] were below 10% and 31%, respectively. In addition, the inhibition of growth at 2500 g/ha (in the data set with Eleocharis acicularis [7]; with Lindernia procumbens [9]; in the data set with Eleocharis kuroguwai [10]; in the data set on Echinochloa oryzicola [11]; in [12]; in the data set on Cyperus serotinus [14]) was above 91% throughout.

On to `Cc1on(C(=O)N(c2ccc(Cl)cc2)C(C)C)c(=O)c1SC(C)C`, for which the inhibition of growth at 1000 g/ha in the data set with Echinochloa oryzicola [1] is above 91%; with Eleocharis kuroguwai [3], above 91%; in data set [4] it was above 91%; in the data set on Cyperus serotinus [6], above 91%; with Eleocharis acicularis [8], 51%; with Lindernia procumbens [13], 51%. Besides, the inhibition at 504 h in data set [2] is below 10%; in data set [5] it was 31%. Also, the inhibition of growth at 2500 g/ha was 71% in the data set on Eleocharis acicularis [7]; above 91% with Lindernia procumbens [9]; above 91% with Eleocharis kuroguwai [10]; above 91% in the data set with Echinochloa oryzicola [11]; above 91% in data set [12]; above 91% in the data set with Cyperus serotinus [14].

For `CCc1on(C(=O)N(c2ccc(Cl)cc2)C(C)C)c(=O)c1SC(C)C`, in data set [5], the inhibition at 504 h was below 10%. Moreover, the inhibition of growth at 2500 g/ha was 51% in the data set on Eleocharis acicularis [7]; 51% in the data set on Lindernia procumbens [9]; above 91% in the data set with Eleocharis kuroguwai [10]; above 91% with Echinochloa oryzicola [11]; above 91% in data set [12]; above 91% in the data set on Cyperus serotinus [14].

Take `COCCSc1c(C)on(C(=O)N(c2ccc(Cl)cc2)C(C)C)c1=O`: the inhibition of growth at 1000 g/ha is above 91% with Echinochloa oryzicola [1]; above 91% in the data set with Eleocharis kuroguwai [3]; above 91% in data set [4]; above 91% in the data set with Cyperus serotinus [6]; 51% in the data set with Eleocharis acicularis [8]; 31% in the data set on Lindernia procumbens [13]. Also, the inhibition at 504 h in [2] was below 10%; in data set [5] it was 11%. The inhibition of growth at 2500 g/ha in the data set with Eleocharis acicularis [7] was 71%; in the data set with Lindernia procumbens [9] it was 51%; in the data set on Eleocharis kuroguwai [10] it was above 91%; in the data set on Echinochloa oryzicola [11], above 91%; in data set [12] it was above 91%; in the data set on Cyperus serotinus [14], above 91%.

For the compound `C#CCSc1c(C)on(C(=O)N(c2ccc(Cl)cc2)C(C)C)c1=O`, the inhibition of growth at 1000 g/ha was above 91% in the data set on Echinochloa oryzicola [1]; above 91% with Eleocharis kuroguwai [3]; above 91% in data set [4]; above 91% in the data set with Cyperus serotinus [6]; 51% in the data set on Eleocharis acicularis [8]; 51% with Lindernia procumbens [13]. Besides, the inhibition at 504 h in data set [2] was below 10%; in data set [5] it was 31%. The inhibition of growth at 2500 g/ha with Eleocharis acicularis [7] was 51%; with Lindernia procumbens [9], 71%; with Eleocharis kuroguwai [10] it was above 91%; with Echinochloa oryzicola [11], above 91%; in [12], above 91%; in the data set on Cyperus serotinus [14], above 91%.

On to `CCSc1c(C)on(C(=O)N(C)c2ccc(Cl)cc2)c1=O`, for which, in [5], the inhibition at 504 h turned out to be 11%. The inhibition of growth at 2500 g/ha was 71% with Eleocharis acicularis [7]; 71% in the data set on Lindernia procumbens [9]; above 91% in the data set with Eleocharis kuroguwai [10]; above 91% in the data set on Echinochloa oryzicola [11]; 71% in data set [12]; above 91% with Cyperus serotinus [14].

For the origin of these results see ChEMBL document CHEMBL3044584, “4-Sulfenyl-2-carbamoyl-4-isoxazolin-3-ones: biological isostere to 4-chloro-2-carbamoyl-4-isoxazolin-3-ones” (Chem Pharm Bull (Tokyo), 2000).
